Reference: patent US7741327B2 (Hoffmann-La Roche Inc., priority 2008, dated 2010)

Assays:
[1] = system: C57B6 mice; assay: Glucokinase activator in vivo screen: blood glucose lowering in mice after oral dosing; conditions: Mus musculus, vs control, read-out: % gluc lowering @ 4 H
Procedure: Glucokinase Activator in vivo Screen Protocol in Lean and Diet Induced Obese Mice: Lean or Diet-Induced Obese (DIO) C57BL/6J mice were orally dosed via gavage with Glucokinase (GK) activator following a two hour fasting period. Blood glucose determinations were made at various (e.g. 0, 1, 2, 4 and 8 h post-oral gavage) times during the study.
C57Bl/6J mice were obtained from Jackson Laboratory (Bar Harbor, Me.) and were maintained in a light-dark cycle with lights on from 0600-1800 hr. For studies in lean mice, the mice were received at age ten weeks and given ad libitum access to control diet (LabDiet 5001 chow, PMI Nutrition, Brentwood, Mo.), and were at least age 11 weeks at the time of study. For studies in the DIO model, the mice were received at age five weeks and given ad libitum access to Bio-Serv F3282 High Fat Diet (Frenchtown, N.J.), and were at least age 16 weeks at the time of study. The experiments were conducted during the light phase of the light-dark cycle. Mice (n=6) are weighed and fasted for a two hour period prior to oral treatment. GK activators are formulated in Gelucire vehicle (Ethanol:Gelucire44/14:PEG400q.s. 4:66:30 v/w/v. For studies in lean mice, the mice were dosed orally with 5.0 μL per gram of body weight (i.e. 5 ml/kg×10.0 mg/ml formulation to equal a 50 mg/kg dose). For studies in DIO mice, the mice were dosed orally with 5.0 μL per gram of body weight (i.e. 5.0 ml/kg×5 mg/ml formulation to equal a 25 mg/kg dose). Immediately prior to dosing, a pre-dose (time zero) blood glucose reading was acquired by snipping off a small portion of the animal's tail and collecting 15 μL blood into a heparinized capillary tube for analysis. Following GK activator administration, additional blood glucose readings were taken at various time points post dose from the same tail wound. Results were interpreted by comparing the mean blood glucose values of vehicle treated mice with GK activator treated mice over the study period.
The Table below provides data for % glucose lowering of a representative number of compounds of the present invention vs control at 4 h post 25 or 30 mg/kg dose in C57B6 mice: […]

[2] = target: T1, Recombinant human liver GK1 (GST-GK) (Homo sapiens, UniProt P35557); assay: In vitro glucokinase activity (G6PDH-coupled NADH assay); type: biochemical; conditions: 30° C., 5 mM D-glucose, 10% DMSO
T1 construct: made in house; host or cells: E. coli
T1 sequence (P35557 1-466 isoform P35557-2): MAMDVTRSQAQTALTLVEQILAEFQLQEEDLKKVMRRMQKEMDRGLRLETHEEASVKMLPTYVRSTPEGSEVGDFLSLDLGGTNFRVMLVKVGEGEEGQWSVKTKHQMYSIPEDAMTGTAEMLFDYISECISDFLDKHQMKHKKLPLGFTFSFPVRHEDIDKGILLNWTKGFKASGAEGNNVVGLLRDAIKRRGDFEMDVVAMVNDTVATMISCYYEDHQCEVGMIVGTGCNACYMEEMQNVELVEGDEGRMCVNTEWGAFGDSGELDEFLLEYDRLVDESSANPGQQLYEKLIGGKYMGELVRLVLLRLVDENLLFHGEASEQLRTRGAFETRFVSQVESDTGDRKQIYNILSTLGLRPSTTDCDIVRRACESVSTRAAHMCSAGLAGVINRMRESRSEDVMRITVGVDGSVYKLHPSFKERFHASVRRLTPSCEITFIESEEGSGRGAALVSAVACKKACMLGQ
Method in brief: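 GST-tagged human liver GK1 from E. coli, assayed at 30° C in 25 mM Hepes pH 7.1 with 5 mM D-glucose, 1 mM ATP, 1.8 mM NAD and G6PDH coupling, 10% DMSO final; reaction started with enzyme after 10 min preincubation. NADH formation followed at OD340; SC1.5 is activator concentration giving 50% increase over DMSO control rate.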

SMILES | change in vivo at 25 mg/kg ([1]; 4 h post 25 mg/kg oral dose) | SC1.5 (concentration of activator that produced a 50% increase in the activity of GK) [2] | change in vivo at 30 mg/kg ([1]; 4 h post 30 mg/kg oral dose)
COC(C)(C)Cn1ccc(NC(=O)[C@H](CC2CCCC2)N2CC(OC3CCCC3)=CC2=O)n1 [Example 21, (S)-3-Cyclopentyl-N-[1-(2-methoxy-2-methyl-propyl)-1H-pyrazol-3-yl]-2-(4-cyclopentyloxy-2-oxo-2,5-dihydro-pyrrol-1-yl)-propionamide] | -26.5% | 0.545 µM | –
CC(C)C[C@@H](C(=O)Nc1ccn(CC(C)(C)O)n1)N1CC(Oc2cccc(Cl)c2Cl)=CC1=O.Cl [Example 77, (S)-2-[4-(2,3-Dichloro-phenoxy)-2-oxo-2,5-dihydro-pyrrol-1-yl]-4-methyl-pentanoic acid [1-(2-hydroxy-2-methyl-propyl)-1H-pyrazol-3-yl]-amide Hydrochloride] | – | 0.162 µM | -39.2%
